According to US5028607A, “Bis(aryl)alkene compounds” (Adir et Compagnie, priority 1989, dated 1991):
Counter-ions that a name gives are not always drawn. Like-named read-outs stand apart in the source and are kept apart here.

Legend:
5-hydroxytryptophan = assay: 5-HTP antagonism (symptoms induced by 5-hydroxytryptophan); assay type: in vivo, rats (female Wistar); conditions: Rattus norvegicus
Procedure: The animals are then placed under observation in transparent cages. Three parameters are assessed in the study: "forepaw treading", "flat body posture" and "head twitches". "Forepaw treading" corresponds to a pedaling motion of the forelimbs. This parameter is measured 80 minutes after the administration of […] and during a 10-minute observation period. […] This parameter is assessed throughout the period of observation of the animals.

5-HT2 = target: T1, 5-HT2 (Rattus norvegicus, UniProt P14842); assay: 5-HT2 antagonism (inhibition of 5-hydroxytryptamine hypertensive response, anesthetized rats); assay type: in vivo, rats (male Sprague-Dawley); conditions: iv, cumulative doses, 5-hydroxytryptamine 100 μg/kg i.v., rats pretreated with d-tubocurarine and prazosin, read-out: ID50, dose inhibiting the hypertensive response by 50%
T1 construct: from tissue; host or cells: whole anesthetized male Sprague-Dawley rat; vasculature (blood pressure response)
T1 sequence (P14842 whole entry): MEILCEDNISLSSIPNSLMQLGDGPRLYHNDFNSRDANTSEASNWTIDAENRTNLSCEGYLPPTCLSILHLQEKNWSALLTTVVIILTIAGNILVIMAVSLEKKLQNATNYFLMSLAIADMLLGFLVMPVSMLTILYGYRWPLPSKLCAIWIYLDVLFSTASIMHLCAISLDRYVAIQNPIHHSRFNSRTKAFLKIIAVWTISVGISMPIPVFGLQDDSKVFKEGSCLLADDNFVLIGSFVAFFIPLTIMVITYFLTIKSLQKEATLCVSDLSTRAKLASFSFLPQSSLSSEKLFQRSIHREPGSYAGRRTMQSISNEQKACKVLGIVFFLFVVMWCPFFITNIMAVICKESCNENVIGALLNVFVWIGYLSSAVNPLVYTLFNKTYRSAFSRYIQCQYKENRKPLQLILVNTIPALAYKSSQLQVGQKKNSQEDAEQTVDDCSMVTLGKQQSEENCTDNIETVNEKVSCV
Procedure: Male Sprague-Dawley rats (350-400 g) are anesthetized i.p. with pentobarbital (45 mg/kg). The trachea is cannulated and the animals are subjected to artificial respiration. The vagus nerves are sectioned. A catheter is placed in a carotid artery to record the arterial blood pressure. A second catheter is placed in the vein of the penis and is used for the injections. The animals' temperature is taken and is maintained at 37° C. The rats are pretreated with d-tubocurarine (1 mg/kg i.v.) and prazosin (1 mg/kg i.v.). 5-Hydroxytryptamine is injected i.v. at a dose of 100 μg/kg twice, separated by an interval of 10 minutes, so as to determine the rise in the systolic arterial blood pressure of each rat. 10 minutes later, the compounds of the invention are injected at the lowest dose and injection of 5-hydroxytryptamine is performed again 10 minutes later. 3 or 4 cumulative doses of the compounds of the invention are tested in the same manner. The percentages of the hypertensive response which are obtained at the different doses are calculated in order to determine the ID50, the dose inhibiting the hypertensive response by 50%.

α1 = α1 antagonism (inhibition of phenylephrine hypertensive response, pithed rats); assay type: in vivo, rats (male Sprague-Dawley); conditions: cumulative doses, phenylephrine 4 g/kg i.v., Tertatolol 100 μg/kg i.v. pretreatment
Text: α1 antagonism Male Sprague-Dawley rats (300-400 g) which have been subjected to a water diet are anesthetized with ethyl ether. A cannula is placed in the trachea. The spinal cord is destroyed by means of a steel rod and artificial respiration is instituted at once. The vagus nerves are sectioned. The carotid arteries are ligated and a catheter is placed in one of them to record the arterial blood pressure. A second catheter is placed in the vein of the penis and is used for the injections. The animals' temperature is taken and is maintained at 36° C. The rats are pretreated with a β-blocker (Tertatolol 100 μg/kg i.v.). Phenylephrine is injected at a dose of […] i.v. Two identical injections are performed, separated by an interval of 10 minutes. The compounds of the invention are injected at the lowest dose and injection of phenylephrine is performed again 10 minutes later. 3 or 4 cumulative doses of the compounds of the invention are tested in the same manner. The values for the percentage inhibition of the hypertensive response which are obtained at the different doses are calculated in order to determine the ID50.

[1] = ip, 80 min, compounds intraperitoneally, 5-hydroxytryptophan 320 mg/kg by gavage, scored at 80 minutes, read-out: ED50 FPT (forepaw treading)
[2] = ip, 1.5 h, read-out: ED50 HT (head twitches)
[3] = ip, compounds intraperitoneally, 5-hydroxytryptophan 320 mg/kg by gavage, read-out: ED50 FBP (flat body posture)
[4] = po, 80 min, compounds orally, 5-hydroxytryptophan 320 mg/kg by gavage, scored at 80 minutes, read-out: ED50 FPT (forepaw treading)
[5] = po, 1.5 h, read-out: ED50 HT (head twitches)
[6] = po, compounds orally, 5-hydroxytryptophan 320 mg/kg by gavage, read-out: ED50 FBP (flat body posture)
[7] = sc, 80 min, compounds subcutaneously, 5-hydroxytryptophan 320 mg/kg by gavage, scored at 80 minutes, read-out: ED50 FPT (forepaw treading)
[8] = sc, compounds subcutaneously, 5-hydroxytryptophan 320 mg/kg by gavage, read-out: ED50 FBP (flat body posture)
[9] = sc, 1.5 h, read-out: ED50 HT (head twitches)

Q: `Cc1nc2c(C(N)=O)ncn2c(O)c1CCN1CCC(=C(c2ccc(F)cc2)c2ccc(F)cc2)CC1.Cl` [EXAMPLE 1, 3-{2-[4-[bis(4-fluorophenyl)methylene]piperidino]ethyl}-8-carbamoyl-4-hydroxy-2-methylimidazo [1,5-a]pyrimidine hydrochloride] was tested. Which ED50 (5-hydroxytryptophan; [1]) did it give?
A: 2.5 mg/kg

Q: And the ED50 (5-hydroxytryptophan; [2])?
A: 0.63 mg/kg

Q: And the ED50 (5-hydroxytryptophan; [3])?
A: 0.08 mg/kg

Q: And the ED50 (5-hydroxytryptophan; [4])?
A: 10 mg/kg

Q: What about the ED50 (5-hydroxytryptophan; [5]) of the same molecule?
A: > 10 mg/kg

Q: And the ED50 (5-hydroxytryptophan; [6])?
A: 0.16 mg/kg

Q: What about the ED50 (5-HT2) of the same molecule?
A: 0.013 mg/kg

Q: What about the “ID50, inhibition of the hypertensive response to phenylephrine” value (“ID50, inhibition” below) (α1) of the same molecule?
A: > 5 mg/kg

Q: Which ED50 (5-hydroxytryptophan; [1]) does the source give for `Cl.Cl.O=C1CN2Cc3ccccc3CC2C(=O)N1CCN1CCC(=C(c2ccccc2)c2ccc(F)cc2)CC1` (centres unmarked) [EXAMPLE 2, 2-{2-[4-[(4-Fluorophenyl)phenylmethylene]piperidino]ethyl}-1,3,4,6,11,11a-hexahydro-1,3-dioxo-2H-pyrazino[1,2-b]-isoquinoline dihydrochloride] here?
A: 1.25 mg/kg

Q: And the ED50 (5-hydroxytryptophan; [2])?
A: 5 mg/kg

Q: What about the ED50 (5-hydroxytryptophan; [3]) of the same molecule?
A: 1.25 mg/kg

Q: Which ED50 (5-hydroxytryptophan; [7]) does the source give for `Cc1nc2c(C(N)=O)ncn2c(O)c1CCN1CCC(=C(c2ccccc2)c2ccc(F)cc2)CC1.Cl` [EXAMPLE 3, 8-Carbamoyl-3-{2-[4-[(4-fluorophenyl)phenylmethylene]piperidino]ethyl}-4-hydroxy-2-methylimidazo[1,5-a]-pyrimidine hydrochloride] here?
A: 10 mg/kg

Q: And the ED50 (5-hydroxytryptophan; [8])?
A: 10 mg/kg

Q: And the ED50 (5-HT2)?
A: 0.024 mg/kg

Q: And the “ID50, inhibition” value (α1)?
A: > 5 mg/kg

Q: For `Cc1nc2c(C#N)ncn2c(O)c1CCN1CCC(=C(c2ccccc2)c2ccc(F)cc2)CC1.Cl` [EXAMPLE 4, 8-Cyano-3-{2-[4-[(4-fluorophenyl)phenylmethylene]piperidino]ethyl}-4-hydroxy-2-methylimidazo[1,5-a]-pyrimidine hydrochloride], which ED50 (5-hydroxytryptophan; [4]) is on record?
A: 1.25 mg/kg

Q: What about the ED50 (5-hydroxytryptophan; [5]) of the same molecule?
A: 10 mg/kg

Q: And the ED50 (5-hydroxytryptophan; [6])?
A: 1.25 mg/kg

Q: What about the “ID50, inhibition” value (α1) of the same molecule?
A: > 5 mg/kg

Q: How did the ED50 (5-HT2) turn out when `Cl.O=C1CN(Cc2ccccc2F)CC(=O)N1CCCN1CCC(=C(c2ccccc2)c2ccc(F)cc2)CC1` [EXAMPLE 5, 4-(2-Fluorobenzyl)-1-{3-[4-[(4-fluorophenyl)phenylmethylene]piperidino]propyl}-2,6-piperazinedione hydrochloride] was run?
A: 0.034 mg/kg

Q: How did the ED50 (5-hydroxytryptophan; [4]) turn out when `O=C1CN(Cc2ccccc2F)CC(=O)N1CCCN1CCC(=C2c3ccccc3-c3ccccc32)CC1` [EXAMPLE 6, 1-{3-[4-(9-Fluorenylidenyl)piperidino]propyl}-4-(2-fluorobenzyl)-2,6-piperazinedione hydrochloride] was run?
A: 5 mg/kg

Q: What about the ED50 (5-hydroxytryptophan; [6]) of the same molecule?
A: 2.5 mg/kg

Q: What about the ED50 (5-HT2) of the same molecule?
A: 0.039 mg/kg

Q: How did the ED50 (5-hydroxytryptophan; [7]) turn out when `Fc1ccc(C(=C2CCN(CCCN3CCN(c4ncccn4)CC3)CC2)c2ccc(F)cc2)cc1` [EXAMPLE 7, 1-{3-[4-Bis(4-fluorophenyl)methylene]piperidino]propyl}-4-(2-pyrimidinyl)piperazine dihydrochloride] was run?
A: 5 mg/kg

Q: What about the ED50 (5-hydroxytryptophan; [9]) of the same molecule?
A: > 10 mg/kg

Q: And the ED50 (5-hydroxytryptophan; [8])?
A: 5 mg/kg

Q: For `O=C1CN(Cc2ccccc2F)CC(=O)N1CCCN1CCC(C=C(c2ccc(F)cc2)c2ccc(F)cc2)C1` (centres unmarked) [EXAMPLE 8, 1-{3-[3-[2,2-bis(4-fluorophenyl)vinylene]-1-pyrrolidinyl]propyl}-4-(2-fluorobenzyl)-2,6-piperazinedione dihydrochloride], which “ID50, inhibition” value (α1) is on record?
A: 5.3 mg/kg

Q: How did the “ID50, inhibition” value (α1) turn out when `Cc1nc2c(C(N)=O)ncn2c(O)c1CCCN1CCC(=C(c2ccccc2)c2ccc(F)cc2)CC1.Cl` [EXAMPLE 9, 8-Carbamoyl-3-{3-[4-[(4-fluorophenyl)phenylmethylene]piperidino]propyl}-4-hydroxy-2-methylimidazo[1,5-a]-pyrimidine hydrochloride] was run?
A: > 5 mg/kg

Q: For `O=C1CN(Cc2ccccn2)CC(=O)N1CCCN1CCC(=C(c2ccccc2)c2ccc(F)cc2)CC1` [EXAMPLE 10, 1-{3-4-(4-Fluorophenyl)phenylmethylene]piperidino]propyl}-4-(2-pyridylmethyl)-2,6-piperazinedione dihydrochloride], which ED50 (5-hydroxytryptophan; [7]) is on record?
A: 1.25 mg/kg

Q: And the ED50 (5-hydroxytryptophan; [9])?
A: 40 mg/kg

Q: And the ED50 (5-hydroxytryptophan; [8])?
A: 0.16 mg/kg

Q: And the ED50 (5-HT2)?
A: 0.0082 mg/kg

Q: Which results are given for `Cc1nc2c(C#N)ncn2c(O)c1CCN1CCC(=C(c2ccc(F)cc2)c2ccc(F)cc2)CC1` [EXAMPLE 11, 3-{2-[4-Bis(4-fluorophenyl)methylene]piperidino]ethyl}-8-cyano-4-hydroxy-2-methylimidazo[1,5-a]-pyrimidine hydrochloride]?
A: ED50 (5-hydroxytryptophan; [4]): 5 mg/kg; ED50 (5-hydroxytryptophan; [5]): 10 mg/kg; ED50 (5-hydroxytryptophan; [6]): 1.25 mg/kg; ID50, inhibition of the hypertensive response to phenylephrine (α1): > 5 mg/kg

Q: Which ED50 (5-HT2) does the source give for `Cc1ccc(C(=C2CCN(CCc3c(C)nc4c(C(N)=O)ncn4c3O)CC2)c2ccccc2)cc1.Cl` [EXAMPLE 13, 8-Carbamoyl-4-hydroxy-3-{2-[4-[(4-methylphenyl)-phenylmethylene]piperidino]ethyl}-2-methylimidazo[1,5-a]-pyrimidine hydrochloride] here?
A: 0.027 mg/kg

Q: And the “ID50, inhibition” value (α1)?
A: 3.05 mg/kg

Q: With `Cc1nc2c(C(N)=O)ncn2c(O)c1CCN1CCCC(C=C(c2ccc(F)cc2)c2ccc(F)cc2)C1` (centres unmarked) [EXAMPLE 23, 3-{2-[3-[2,2-Bis(4-fluorophenyl)vinylene]piperidino]ethyl}-8-carbamoyl-4-hydroxy-2-methylimidazo[1,5-a]-pyrimidinehydrochloride] as the molecule, how does the “ID50, inhibition” value (α1) read?
A: > 5 mg/kg

Q: Which “ID50, inhibition” value (α1) does the source give for `Cc1nc2c(C(N)=O)ncn2c(O)c1CCN1CCC(C=C(c2ccc(F)cc2)c2ccc(F)cc2)C1` (centres unmarked) [EXAMPLE 24, 3-(3-4-2,2-Bis(4-fluorophenyl)vinyl]pyrrolidino]ethyl}-8-carbamoyl-4-hydroxy-2-methylimidazo[1,5-a]-pyrimidine hydrochloride] here?
A: > 5 mg/kg

Q: Which “ID50, inhibition” value (α1) does the source give for `O=c1[nH]c2ccccc2c(=O)n1CCN1CCCC(=C(c2ccc(F)cc2)c2ccc(F)cc2)CC1` [EXAMPLE 25, 3-{2-[4-[Bis(4-fluorophenyllmethylene]perhydroazepin-1-yl]ethyl}-2,4-dioxo-1,2,3,4-tetrahydrocuinazoline hydrochloride] here?
A: 3.05 mg/kg
